Test results: paper PMC6895912 (Cancers, 2019)
Values joined by “and” are separate entries in the source; they are usually repeats but may differ in a detail not shown here. Equal values may be shown once. “Also recorded” adds a separate entry of the source.

What was measured:
[1] = tested on: CWR-R1, CWR-R1 (10E), CWR-R1-MTX20nM cells; assay: Colony formation (clonogenicity) assay; assay type: cell-based, human; settings: parental CWR-R1 and drug-resistant counterparts, 14 days
Excerpt: (A) Comparative GI50 values of Gal, NGGAs, and enzalutamide (ENZ) in drug-naïve-/-resistant prostate cancer cells. (B) Gal and NGGAs induce G1 cell cycle arrest in LNCaP cells. (C) VNPP414 and VNPP433-3β deplete the cell cycle regulator, cyclin D1, and upregulate p21; “+” indicates specific treatments. (D) Gal cause dose-dependent depletion of cyclin D1. (E) Unlike ENZ, Gal and VNPP433-3β inhibit colony formation of drug-naïve/-resistant cells in vitro. 1000 cells/well (CWR-R1, CWR-R1 (10E), CWR-R1-MTX20nM), seeded in 6-well plates were treated with indicated concentrations of compounds for a period of 14 days. Media containing compounds were replaced every 3 days. Colonies were stained with 0.05% crystal violet. (F) Quantification of colony formation units (CFU) in drug-naive/resistant cells. Colony assays were repeated three times and colonies counted in four quadrants of the wells. Results are represented as averages with S.E.M. (* p < 0.05, ** p < 0.001). Note: the numbers in parentheses in Figure 2B,C,E are concentrations of the agents in µM.
0.1 × 10^3 cells per well were seeded in 6-well plates and allowed to attach overnight (16 h), cells were treated with compounds in regular media (RPMI with 10% FBS) at the indicated concentrations and replaced every 3rd day for 14 days or until visible colonies could be counted. Colonies were washed and stained with 0.05% crystal violet for 30 min. Colonies were scanned and quantified (colonies counted in four quadrants of each well) with ImageJ colony counter. Results are represented as the mean of triplicates.

[2] = tested on: CWR22Rv1 xenografts; assay: Antitumor efficacy in castration-resistant CWR22Rv1 xenograft model; assay type: in vivo, male NOD SCID mice; settings: 5 days/week, 16 days
Method: Following the in vitro studies and determination of the PK parameters, we then investigated the relative efficacy. Gal and the NGGAs in vivo using difficult-to-treat castration-resistant CWR22Rv1 xenografts. Given the enhanced IP and PO PK parameters of VNPP414 and VNPP433-3β over Gal, we decided to use lower doses of the new analogs compared to the previous Gal doses (200 mg/kg, IP/PO). Gal (200 mg/kg) served as positive control, while ENZ (25 mg/kg) administered PO was used as negative control. Male NOD SCID mice bearing CWR22Rv1 tumors were treated with vehicle, ENZ, Gal, VNPP414, and VNPP433-3β for 16 days as described in the Methods and Materials Section. […] In contrast, Gal and the NGGAs caused statistically significant tumor growth inhibition (TGI). […] It is notable that VNPP433-3β (at 7.5- and 15-fold lower molar doses) and VNPP414 (at 4-fold lower molar dose) are more efficacious than Gal. In general, no host toxicities were observed, as monitored by changes in animal body weight (Figure 7C).
Figure 7 Effects of Gal, NGGAs and ENZ in an in vivo castration-resistant prostate cancer model. (A) Mice bearing CWR22Rv1 xenografts (5 mice per group) were treated with vehicle, Gal (100 mg/kg/twice daily), VNPP414 (60 mg/kg, once daily), VNPP433-3β (15 or 30 mg/kg, once daily) and ENZ (25 mg.kg, once daily) 5 days per week for 16 days. Tumor volumes were measured twice a week and the tumors were collected. Tumor growth inhibition (TGI) values are indicated at the right of each growth curve, and the error bars are the SEM. Results are represented as means ± SEM. ^# p = ns (not significant vs. vehicle), ^$ p < 0.0272 vs. vehicle, * p < 0.0035 vs. vehicle, ** p < 0.0025 vs. vehicle and *** p < 0.0008 vs. vehicle. (B) Photographed tumors from each group. (C) Mean body weights of mice determined during the study. (D) Western blot analyses of tumor samples from each experimental group at day 16. […] It is left out because vehicle is a control, not a substance.
Male NOD SCID mice 5–6 weeks of age were obtained from University of Maryland School of Medicine Veterinary Resources (Baltimore, MD, USA. Mice were housed under complete aseptic conditions, fed autoclaved pellets and sterile water ad libitum. Following a week of acclimatization, approximately 5 × 10^6 CWR22Rv1 cells were inoculated one flank f mice. Tumor-bearing mice (tumor volume around ~100 mm^3) were randomized into 6 groups (5 mice in each group; compounds formulated in vehicle) and treated as follows: (i) vehicle control (40% β-cyclodextrin in saline, PO.), (ii) ENZ (25 mg/kg, PO, once daily), (iii) Gal (100mg/kg, PO, twice daily), (iv) VNPP414 (60 mg/kg, PO, once daily), (v) VNPP433-3β (15 mg/kg, PO, once daily), and (vi) VNPP433-3β (30 mg/kg, PO, once daily) for 5 days/week. Tumors were measured twice weekly with calipers and tumor volume was calculated by the formula: length × width^2 × 0.5 (mm^3). Animals were also weighed weekly and monitored for general health status and signs of possible toxicity due to treatments. Mice were sacrificed after the indicated periods of treatment and tumors excised. Tumors were divided and either flash frozen in liquid nitrogen or placed in 10% buffered formalin for western blot analysis.

| SMILES | inhibition of colony formation [1] | tumor growth inhibition (TGI) ([2]; 15 mg/kg PO once daily) [%] | tumor growth inhibition (TGI) ([2]; 30 mg/kg PO once daily) | tumor growth inhibition (TGI) ([2]; 200 mg/kg (100 mg/kg PO twice daily), listed as Gal) | tumor growth inhibition (TGI) ([2]; 60 mg/kg PO once daily) [%] |
| --- | --- | --- | --- | --- | --- |
| C[C@]12CC[C@H](n3ccnc3)CC1=CCC1C2CC[C@]2(C)C(n3cnc4ccccc43)=CCC12 (stereo partly drawn) [VNPP433-3β] | significantly more potent than Gal; also recorded: markedly inhibited clonogenic ability | 60.5 | 84% and 83.7% | – | – |
| C[C@]12CC[C@H](O)CC1=CC[C@@H]1[C@@H]2CC[C@]2(C)C(n3cnc4ccccc43)=CC[C@@H]12 [Galeterone] | markedly inhibited clonogenic ability | – | – | 47% and 46.5% | – |
| C[C@]12CC[C@H](OCc3ccncc3)CC1=CCC1C2CC[C@]2(C)C(n3cnc4ccccc43)=CCC12 (stereo partly drawn) [VNPP414] | – | – | – | – | 62.8 |
